Laboratory results reported in US20250026752A1, “POSITIVE ALLOSTERIC MODULATORS OF THE MUSCARINIC ACETYLCHOLINE RECEPTOR M4” (Vanderbilt University, priority 2021, published 2025).
Read-outs that look alike come from different tables or passages of the source.

Molecular target: T1, human mAChR M4 (Homo sapiens, UniProt P08173)
T1 construct: expressed in transfected cells; host or cells: CHO-K1 (ATCC), stably expressing hM4 and Gqi5
T1 sequence (P08173 1-479): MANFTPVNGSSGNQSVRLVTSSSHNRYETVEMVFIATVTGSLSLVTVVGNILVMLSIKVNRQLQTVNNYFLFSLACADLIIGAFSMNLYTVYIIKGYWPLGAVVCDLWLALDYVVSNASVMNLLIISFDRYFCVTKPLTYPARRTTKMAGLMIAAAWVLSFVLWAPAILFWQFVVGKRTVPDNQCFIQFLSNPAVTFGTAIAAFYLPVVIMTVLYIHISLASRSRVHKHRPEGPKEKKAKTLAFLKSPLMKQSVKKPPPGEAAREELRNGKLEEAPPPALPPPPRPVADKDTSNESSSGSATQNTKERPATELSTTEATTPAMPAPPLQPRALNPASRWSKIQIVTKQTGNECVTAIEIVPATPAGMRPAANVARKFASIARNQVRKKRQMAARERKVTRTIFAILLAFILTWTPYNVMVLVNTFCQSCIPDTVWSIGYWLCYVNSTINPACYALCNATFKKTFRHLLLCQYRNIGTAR
Experiment: mAChR M4 cell-based functional assay: calcium flux (Fluo-4, FDSS), positive allosteric modulator activity on the EC20 acetylcholine response, hM4-Gqi5 CHO-K1 cells
Parameters: Emax: dose or concentration left out as unconfirmed
Details: for Emax at 30 µM: CHO-K1, human M4, % ACh maximum at 30 μM; for EC50: PAM activity on EC20 acetylcholine response, calcium flux
How it was run: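 CHO-K1 cells stably expressing human M4 with chimeric Gqi5, loaded with Fluo-4 AM for 50 min at 37° C. Compounds (11-point, 1:3 dilutions) added first, then an acetylcholine EC20 at 144 s; calcium read on FDSS at 1 Hz. EC50 is the half-maximal increase above the EC20 baseline, four-parameter logistic fit.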

[1] = human M4, read-out: Human M4 EC50

Row | Structure (SMILES) | Emax at 30 µM | EC50 [1] | Emax (CHO-K1) | EC50 (Human M4 EC50, human M4)
1 | Cc1ccc2nc(N3CCOCC3)nc(N3CCc4ncc(C(F)(F)F)cc4C3)c2c1 [Compound 205, 4-[6-methyl-4-[3-(trifluoromethyl)-7,8-dihydro-5H-1,6-naphthyridin-6-yl]quinazolin-2-yl]morpholine] | 63% | 670 nM |  | 
2 | FC(F)(F)c1ccc(-c2cnc3c(c2)CN(c2ncnc4ccc(Cl)cc24)CC3)cn1 [Compound 44, 6-chloro-4-[3-[6-(trifluoromethyl)-3-pyridyl]-7,8-dihydro-5H-1,6-naphthyridin-6-yl]quinazoline] | 59% | 470 nM |  | 
3 | Cc1ccc2nc(C3CC3)nc(N3CCc4ncc(-c5cn(C)nc5C)cc4C3)c2c1 [Compound 176, 2-cyclopropyl-4-[3-(1,3-dimethylpyrazol-4-yl)-7,8-dihydro-5H-1,6-naphthyridin-6-yl]-6-methyl-quinazoline] | 73% | 740 nM |  | 
4 | Cc1ccc2nc(C)nc(N3CCc4ncc(-c5cn(C)nc5C)cc4C3)c2c1 [Compound 32, 4-[3-(1,3-dimethylpyrazol-4-yl)-7,8-dihydro-5H-1,6-naphthyridin-6-yl]-2,6-dimethyl-quinazoline] | 84% | 780 nM |  | 
5 | Cc1nc(N2Cc3cc(C(F)(F)F)cnc3C(C)(C)C2)c2cc(F)ccc2n1 [Compound 118, 4-[8,8-dimethyl-3-(trifluoromethyl)-5,7-dihydro-1,6-naphthyridin-6-yl]-6-fluoro-2-methyl-quinazoline] | 63% | 8390 nM |  | 
6 | Cc1cc(F)ncc1-c1cnc2c(c1)CN(c1ncnc3ccc(F)cc13)CC2 [Compound 304, 6-fluoro-4-(3-(6-fluoro-4-methylpyridin-3-yl)-7,8-dihydro-1,6-naphthyridin-6(5H)-yl)quinazoline] | 95% | 80 nM |  | 
7 | Fc1ccc2c(N3CCc4ncc(C(F)(F)F)cc4C3)ncnc2c1 [Compound 137, 7-fluoro-4-[3-(trifluoromethyl)-7,8-dihydro-5H-1,6-naphthyridin-6-yl]quinazoline] | 83% | 430 nM |  | 
8 | Clc1ccc2ncnc(N3CCc4ncc(-c5cnn(C6CC6)c5)cc4C3)c2c1 [Compound 17, 6-chloro-4-[3-(1-cyclopropylpyrazol-4-yl)-7,8-dihydro-5H-1,6-naphthyridin-6-yl]quinazoline] | 78% | 120 nM |  | 
9 | COc1ccc2ncnc(N3CCc4ncc(C(F)(F)F)cc4C3)c2c1 [Compound 139, 6-methoxy-4-[3-(trifluoromethyl)-7,8-dihydro-5H-1,6-naphthyridin-6-yl]quinazoline] | 97% | 200 nM |  | 
10 | Clc1nc(N2CCc3ncc(N4CCCn5nccc54)cc3C2)c2cccnc2n1 [Compound 94, 2-chloro-4-[3-(6,7-dihydro-5H-pyrazolo[1,5-a]pyrimidin-4-yl)-7,8-dihydro-5H-1,6-naphthyridin-6-yl]pyrido[2,3-d]pyrimidine] | 88% | 130 nM |  | 
11 | COc1ccc2nc(C)nc(N3CCc4ncc(-c5ccccc5C)cc4C3)c2c1 [Compound 314, 6-methoxy-2-methyl-4-(3-(o-tolyl)-7,8-dihydro-1,6-naphthyridin-6(5H)-yl)quinazoline] | 77% | 4670 nM |  | 
12 | Fc1ccc2ncnc(N3CCc4ncc(N5CCOC(c6ccccn6)C5)cc4C3)c2c1 (stereo not shown) [Compound 223, 4-(6-(6-fluoroquinazolin-4-yl)-5,6,7,8-tetrahydro-1,6-naphthyridin-3-yl)-2-(pyridin-2-yl)morpholine] | 65% | 670 nM |  | 
13 | Cn1nccc1Nc1cnc2c(c1)CN(c1nc(NCC(C)(C)O)nc3ccc(F)cc13)CC2 [Compound 212, 1-[[6-fluoro-4-[3-[(2-methylpyrazol-3-yl)amino]-7,8-dihydro-5H-1,6-naphthyridin-6-yl]quinazolin-2-yl]amino]-2-methyl-propan-2-ol] | 90% | 190 nM |  | 
14 | COc1ccc2ncnc(N3CCc4ncc(Oc5ccc(C)cc5F)cc4C3)c2c1 [Compound 146, 4-[3-(2-fluoro-4-methyl-phenoxy)-7,8-dihydro-5H-1,6-naphthyridin-6-yl]-6-methoxy-quinazoline] | 40% | > 10000 nM |  | 
15 | C[C@@H]1CCN(c2cnc3c(c2)CN(c2ncnc4ccc(F)cc24)CC3)c2ccnn21 [Compound 288, (R)-6-fluoro-4-(3-(7-methyl-6,7-dihydropyrazolo[1,5-a]pyrimidin-4(5H)-yl)-7,8-dihydro-1,6-naphthyridin-6(5H)-yl)quinazoline] | 75% | 40 nM |  | 
16 | Fc1ccc2ncnc(N3CCc4ncc(N5CCC(C(F)(F)F)n6nccc65)cc4C3)c2c1 (stereo not shown) [Compound 69, 6-fluoro-4-[3-[7-(trifluoromethyl)-6,7-dihydro-5H-pyrazolo[1,5-a]pyrimidin-4-yl]-7,8-dihydro-5H-1,6-naphthyridin-6-yl]quinazoline] | 71% | 120 nM |  | 
17 | Cc1nc(N2CCc3ncc(N4CCOC(c5ccccn5)C4)cc3C2)c2cc(F)ccc2n1 (stereo not shown) [Compound 224, 4-(6-(6-fluoro-2-methylquinazolin-4-yl)-5,6,7,8-tetrahydro-1,6-naphthyridin-3-yl)-2-(pyridin-2-yl)morpholine] | 72% | 930 nM |  | 
18 | [2H]C1([2H])N(c2cnc3c(c2)CN(c2ncnc4ccc(F)cc24)CC3)c2ccnn2C([2H])([2H])C1([2H])[2H] [Compound 281, 4-(3-(6,7-dihydropyrazolo[1,5-a]pyrimidin-4(5H)-yl-5,5,6,6,7,7-d6)-7,8-dihydro-1,6-naphthyridin-6(5H)-yl)-6-fluoroquinazoline] | 104% | 30 nM |  | 
19 | Cc1ccc2nc(C)nc(N3CCc4ncc(N5CCCn6nccc65)cc4C3)c2c1 [Compound 100, 4-[3-(6,7-dihydro-5H-pyrazolo[1,5-a]pyrimidin-4-yl)-7,8-dihydro-5H-1,6-naphthyridin-6-yl]-2,6-dimethyl-quinazoline] | 101% | 60 nM |  | 
20 | Fc1ccc2nc(C3CC3)nc(N3CCc4ncc(N5CCCn6nccc65)cc4C3)c2c1 [Compound 194, 2-cyclopropyl-4-[3-(6,7-dihydro-5H-pyrazolo[1,5-a]pyrimidin-4-yl)-7,8-dihydro-5H-1,6-naphthyridin-6-yl]-6-fluoro-quinazoline] | 10% | 230 nM |  | 
21 | CC1Cc2ncc(C(F)(F)F)cc2CN1c1ncnc2ccc(F)cc12 (stereo not shown) [Compound 155, 6-fluoro-4-[7-methyl-3-(trifluoromethyl)-7,8-dihydro-5H-1,6-naphthyridin-6-yl]quinazoline] | 98% | 60 nM |  | 
22 | Fc1ccc2nc(NC3CC3)nc(N3CCc4ncc(C(F)(F)F)cc4C3)c2c1 [Compound 196, N-cyclopropyl-6-fluoro-4-[3-(trifluoromethyl)-7,8-dihydro-5H-1,6-naphthyridin-6-yl]quinazolin-2-amine] | 98% | 410 nM |  | 
23 | Fc1ccc2nc(Nc3ccccc3F)nc(N3CCc4ncc(C(F)(F)F)cc4C3)c2c1 [Compound 200, 6-fluoro-N-(2-fluorophenyl)-4-[3-(trifluoromethyl)-7,8-dihydro-5H-1,6-naphthyriidn-6-yl]quinazolin-2-amine] | 63% | > 10000 nM |  | 
24 | Fc1ccc2ncnc(N3CCc4ncc(-n5cccn5)cc4C3)c2c1 [Compound 68, 6-fluoro-4-(3-pyrazol-1-yl-7,8-dihydro-5H-1,6-naphthyridin-6-yl)quinazoline] |  |  | 88% | 220 nM
25 | Cc1nc(N2CCc3ncc(-c4ccccc4C)cc3C2)c2cc(Cl)ccc2n1 [Compound 302, 6-chloro-2-methyl-4-(3-(o-tolyl)-7,8-dihydro-1,6-naphthyridin-6(5H)-yl)quinazoline] | 94% | 5370 nM |  | 
26 | Fc1cccc(Cc2cnc3c(c2)CN(c2ncnc4ccc(F)cc24)CC3)c1 [Compound 114, 6-fluoro-4-[3-[(3-fluorophenyl)methyl]-7,8-dihydro-5H-1,6-naphthyridin-6-yl]quinazoline] | 75% | 590 nM |  | 
27 | Cc1nn(C)cc1-c1cnc2c(c1)CN(c1nc(C3CC3)nc3ccc(F)cc13)CC2 [Compound 193, 2-cyclopropyl-4-[3-(1,3-dimethylpyrazol-4-yl)-7,8-dihydro-5H-1,6-naphthyridin-6-yl]-6-fluoro-quinazoline] | 85% | 950 nM |  | 
28 | Cc1cn(C)nc1-c1cnc2c(c1)CN(c1nc(C(F)(F)F)nc3ccc(F)cc13)CC2 [Compound 64, 4-[3-(1,4-dimethylpyrazol-3-yl)-7,8-dihydro-5H-1,6-naphthyridin-6-yl]-6-fluoro-2-(trifluoromethyl)quinazoline] | 69% | 510 nM |  | 
29 | Cc1ccccc1-c1cnc2c(c1)CN(c1ncnc3ccc(F)cc13)CC2 [Compound 292, 6-fluoro-4-(3-(o-tolyl)-7,8-dihydro-1,6-naphthyridin-6(5H)-yl)quinazoline] | 79% | 660 nM |  | 
